Measured values as given in patent US11300567B2, “Methods and compositions for protein purification and enzyme reaction” (THE REGENTS OF THE UNIVERSITY OF CALIFORNIA, priority 2015, dated 2022).
Entries after “also recorded” stand apart in the source; their conditions may differ.

Experiments:
Assay type in all cases: biochemical
[1] = Immobilized alkaline phosphatase reactor: continuous flow stability; conditions: amine-glutaraldehyde cross linker, 10 h, 1 mL min^−1
Procedure: FIG. 64 depicts amine-glutaraldehyde cross-linker immobilization. Glutaraldehyde solution (90 μL in 3.00 mL PBS) was added to a freshly coated sample tube. The sample tube was then capped, and inserted into a VFD. The sample tube was rotated at 8 krpm for 30 min to create the APTES-glutaraldehyde cross linker. After rotation, the sample tube was then rinsed with PBS (6×5 mL) and inverted to remove the majority of the buffer solution. The enzyme immobilization step was then carried out as described above. Following this, the sample tube was removed from the VFD and washed with PBS (5×5 mL, pH 8.0), and inverted to remove the majority of the buffer solution. The sample tube was then loaded back into the VFD before addition of NaBH3CN (18.8 mg) in sodium acetate buffer (50 mM, pH 5.0, 3.00 mL). The sample tube was then capped and rotated at 8 krpm for 30 min. […]
The p-nitrophenol phosphate substrate solution (0.01 M in 1.0 M diethanolamine) was prepared as follows: […] of diethanolamine was added to 1.0 L of H2O, then the pH of the solution was adjusted to pH 9.8 using 5 M HCl. […] The aliquot was then analyzed via absorption spectroscopy as described above. […]

[2] = Alkaline phosphatase VFD acceleration, crowding and centrifuge control (Example 4)
Procedure: The enzyme-substrate solution (alkaline phosphatase and p-nitrophenol phosphate) was subjected to centrifugation in a bench top centrifuge at the indicated rotational speeds for 10 min. A direct comparison was then made between a VFD sample and a centrifuged sample (FIG. 12).
FAsTAP™ thermosensitive alkaline phosphatase (1.0 μL, 0.11 mM) was added to 10 mL of the diethanolamine buffer to generate an enzyme stock solution (11.1 nM). This solution was made fresh every two hours and stored on ice. Each sample was prepared by combining 0.800 mL of the enzyme stock solution and 0.500 mL of alkaline phosphatase liquid substrate system (pNPP, Sigma-Aldrich, 0.435 mM); this solution (1.3 mL) was added to either an Eppendorf or VFD sample tube. The reaction was incubated at 25° C. for 10 min unless otherwise indicated. […] The sample (100 μL) was then transferred to a 96-well micro plate reader, and the absorbance measured at 402 nm (λmax). […]
To explore the ability of VFD-mediated processing to overcome steric crowding reagents, two PEG polymers with average MW of 3350 and 8000 g/mol were added to the alkaline phosphatase-substrate solutions as follows. The appropriate quantities of PEG reagent for the indicated final concentrations were dissolved in diethanolamine buffer (total volume of 10.0 mL). […] The absorbance of the solution was then measured at 402 nm (FIG. 23).

[3] = Alkaline phosphatase VFD vs batch enhancement, incl. steric crowding (Example 1); conditions: VFD 10 minutes
Procedure: In a typical experiment, fast thermosensitive alkaline phosphatase (1 μL, 1 unit, Thermo-Fisher) was added to 10 mL of diethanolamine buffer (1.0 M diethanolamine buffer with 0.50 mM magnesium chloride at pH 9.8 at 25° C.) in creating an enzyme stock solution. This solution was stored on ice and not stored for more than two hours. p-nitrophenyl phosphate liquid substrate solution (500 μL, Sigma-Aldrich) was added to a 20 mm external diameter VFD tube. To this was added alkaline phosphatase enzyme solution (800 μL) and the tube was inserted into the VFD and immediately spun to the required rotational speed. The VFD tube was rotated about its axis for 10 minutes at a 45-degree tilt angle relative to the horizontal position. At the end of this time 4 M NaOH (150 μL) was added in quenching the reaction. The sample was then added to a 96-well reader plate and the absorbance read at 401 nm (being the λmax for this system with 150 μL NaOH quench). […] From a comparison of the absorption values of the VFD vs. batch an enhancement factor can be determined (FIGS. 3A-3N).
For the steric crowding studies the following method was performed. […] The sample was then added to a 96-well reader plate and the absorbance read at 401 nm (being the λmax for this system with 150 μL NaOH quench). […] From a comparison of the absorption values of the VFD vs. batch an enhancement factor can be determined (FIGS. 3A-3N).

[4] = Michaelis-Menton initial rates experiments, batch vs VFD (Table 1); conditions: Batch (non-VFD)
Procedure: In determining if the observed acceleration is due to a kinetic or thermodynamic effect, the initial rates of each reaction were explored. All five enzymes were subjected typical kinetic experiments using the Michaelis-Menton model. The intrinsic values of the enzymes in a batch type and VFD system could be ascertained (Table 1).
To a 17.7 mm internal diameter VFD tube was added the substrate and enzyme in buffer at the appropriate concentration. The VFD tube was rotated about its axis at a specific rotational speed at an inclination angle of 45-degrees. After a set amount of time had elapsed, the rotation was immediately halted and the quenching reagent added. The exact same reaction was run alongside the VFD in mimicking a non-VFD process. From both the VFD processed and non-VFD processed sample an aliquot of 0.100 mL was removed and added to a 96 well plate and read at 405 nm to detect the production of p-nitrophenoxide. These measurements were carried out in triplicate and allow an accurate comparison to be drawn between VFD and non-VFD processing. For all alterations to this general protocol, assay and further experimental design, see supporting information.

Substance: alkaline phosphatase
- stability of immobilized enzyme in continuous flow [1]: stable levels of substrate conversion for 10 h; also recorded: good stability over 10 h of processing
- enhancement of VFD-processed enzyme in high concentration of PEG 8000 ([2]; PEG 8000 (6.00 mg/ml, 0.75 M)): ≈ 9 fold
- effect of centrifugation on enzymatic activity (control) ([2]; centrifuged at 14 krpm (17530 g), no VFD): no increase in enzymatic activity
- enhancement compared to a non-VFD sample, crowded solution ([3]; 6 mg/mL PEG8000 dopant, 45-degree tilt): ~12 ×
- enhancement in activity compared to a non-VFD sample ([3]; 45-degree tilt angle): ~6 ×
- Km [4]: 484 µM
- Vmax (Mol/sec) Batch [4]: 2.271e-08 mol/s
- kcat (sec^−1) Batch [4]: 1 s⁻¹
